Results published in US20260109721A1, “IONIZABLE CATIONIC LIPIDS INCORPORATING SILICON: SYNTHESIS AND LNP FORMULATION” (priority 2023, published 2026).

Legend:
[1] = Encapsulation efficiency of loaded LNPs, RiboGreen RNA assay (Method A); type: physicochemical; conditions: encapsulation efficiency of mRNA-loaded LNP, Method A, RiboGreen
In short: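 mRNA-LNP samples diluted in TE buffer (~4-7 μg/mL RNA) and plated in duplicate with TE or Triton X-100 buffer, then 10 min at 37° C to lyse particles. RiboGreen (1:100 in TE pH 7.5) added after cooling; fluorescence ex 480/em 525, mRNA quantified against RNA standard curve.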

[2] = LNP size, PDI and zeta potential by Dynamic Light Scattering (Method A); type: physicochemical; conditions: LNP formulated with the lipid, DLS
In short: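 LNPs formed by microfluidic mixing of ethanolic lipid mix with Luc mRNA in 10 mM citrate pH 4.0, about 12 ml/min total flow at 3:1 ratio. Particle size, PDI and zeta potential then measured by dynamic light scattering.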

CCCCCCCC/C=C\CCCCCCCCOC(=O)C(C)(C)CCC(OCCCCCCCC/C=C\CCCCCCCC)O[Si](C)(C)OCCCCCCN1CCOCC1 (stereo not drawn) [Example 95, (Z)-octadec-9-en-1-yl 5-((dimethyl((6-morpholinohexyl)oxy)silyl)oxy)-2,2-dimethyl-5-(((Z)-octadec-9-en-1-yl)oxy)pentanoate]
EE (%) [1]: 88% | PDI [2]: 0.15 | Size (nm) [2]: 90.33 nm | Zeta potential (mV) [2]: −20.80 mV

CCCCCCCC/C=C\CCCCCCCCOC(=O)C(C)(C)CC(OCCCCCCCC/C=C\CCCCCCCC)O[Si](C)(C)OCCCCCCN(CCO)CCN(CCO)CCCCCCO[Si](C)(C)OC(CC(C)(C)C(=O)OCCCCCCCC/C=C\CCCCCCCC)OCCCCCCCC/C=C\CCCCCCCC (stereo not drawn) [Example 96, di((Z)-octadec-9-en-1-yl) 14,17-bis(2-hydroxyethyl)-2,2,6,6,25,25,29,29-octamethyl-4,27-bis(((Z)-octadec-9-en-1-yl)oxy)-5,7,24,26-tetraoxa-14,17-diaza-6,25-disilatriacontanedioate]
EE (%) [1]: 89% | PDI [2]: 0.14 | Size (nm) [2]: 81.42 nm | Zeta potential (mV) [2]: −17.77 mV

C#CCN(C)CCCCCCO[Si](C)(C)OC(CC(C)(C)C(=O)OCCCCCCCC/C=C\CCCCCCCC)OCCCCCCCC/C=C\CCCCCCCC (stereo not drawn) [Example 97, (Z)-octadec-9-en-1-yl 4,12,12,16,16-pentamethyl-14-(((Z)-octadec-9-en-1-yl)oxy)-11,13-dioxa-4-aza-12-silaheptadec-1-yn-17-oate]
EE (%) [1]: 86% | PDI [2]: 0.26 | Size (nm) [2]: 101.9 nm | Zeta potential (mV) [2]: −22.01 mV

CCCCCCCCCCCOC(=O)CCCCCN(CCO)CCCCCCCC(=O)OC(CCCCCCCC)CCCCCCCC [SM-102, reference compound]
EE (%) [1]: 88% | Size (nm) [2]: 77.03 nm | Zeta potential (mV) [2]: −5.03 mV
